In US9382228B2 (priority 2013, dated 2016):

How the values were obtained:
osteoclast precursors = assay: cells; assay type: cell-based; conditions: read-out: Osteoclast assay
M-NFS-60 cells = assay: cells; conditions: 67 h, read-out: M-NFS-60 cell proliferation
Method: M-NFS-6 Cell Proliferation Assay
A serial dilution of test compound was dispensed into a 384-well black clear bottom plate (Corning, Corning, N.Y.). Two thousand five hundred cells were added per well in 50 μL complete growth medium. […] IC50 values were calculated from a series of percent inhibition values determined at a range of inhibitor concentrations using software routines as implemented in the GraphPad Prism software package.

[1] = biological target: unphosphorylated PDGFRβ kinase (uPDGFRβ, Seq. ID No. 3) (Homo sapiens, UniProt P09619); assay: biochemical
Method: Unphosphorylated PDGFRβ (uPDGFRβ) Kinase (Seq. ID No. 3) Assay
In this assay, the oxidation of NADH (thus the decrease at A340 nm) was continuously monitored spectrophometrically. […] The inhibition reaction was started by mixing serial diluted test compound with the above reaction mixture. The absorption at 340 nm was monitored continuously for 4 h at 30° C. on a Polarstar Optima or Synergy 2 plate reader. The reaction rate was calculated using the 1.5 to 2.5 h time frame. Percent inhibition was obtained by comparison of reaction rate with that of a control (i.e. with no test compound). IC50 values were calculated from a series of percent inhibition values determined at a range of inhibitor concentrations using software routines as implemented in the GraphPad Prism software package.

[2] = system: phospho-FMS in THP-1 cells; assay: cells; conditions: Homo sapiens, THP-1, read-out: pFMS inhibition in THP-1 cells
Method: In a separate 96 well black clear bottom plate, one hundred and fifty thousand THP-1 cells were added per well in 100 μL in assay medium. Fifty microliters of diluted compound was then added to the cells. […] Lysates were prepared and used to perform the phospho-FMS ELISA as described by the manufacturer (catalog #DYC3268, R & D Systems, Minneapolis, Minn.). GraphPad Prism was used to calculate IC50 values obtained from data generated from the ELISA assay.

[3] = biological target: unphosphorylated c-KIT kinase (uKIT, Seq. ID no. 2) (Homo sapiens, UniProt P10721); assay: biochemical
Method: uKit kinase (Seq. ID No. 2) Assay
In this assay, the oxidation of NADH (thus the decrease at A340 nm) was continuously monitored spectrophometrically. […] The inhibition reaction was started by mixing serial diluted test compound with the above reaction mixture. The absorption at 340 nm was monitored continuously for 4 hours at 30° C. on Synergy 2 plate reader (BioTech).

[4] = biological target: T1, unphosphorylated c-FMS kinase (uFMS, Seq. ID no. 1) (Homo sapiens, UniProt P07333); assay: biochemical
T1 sequence (P07333 538-972): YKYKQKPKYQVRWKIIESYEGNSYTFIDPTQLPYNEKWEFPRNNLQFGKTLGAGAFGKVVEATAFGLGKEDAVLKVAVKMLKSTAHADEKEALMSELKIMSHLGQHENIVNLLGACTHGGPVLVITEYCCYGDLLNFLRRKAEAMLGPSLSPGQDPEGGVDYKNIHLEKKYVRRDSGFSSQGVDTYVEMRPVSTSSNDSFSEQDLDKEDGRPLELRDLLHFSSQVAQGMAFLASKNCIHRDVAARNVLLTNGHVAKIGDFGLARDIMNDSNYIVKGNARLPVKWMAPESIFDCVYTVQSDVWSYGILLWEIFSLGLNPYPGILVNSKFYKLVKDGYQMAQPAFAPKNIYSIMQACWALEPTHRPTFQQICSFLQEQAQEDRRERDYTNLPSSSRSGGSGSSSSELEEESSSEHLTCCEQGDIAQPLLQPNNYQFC

[5] = uPDGFRb, enzymatic assay, ATP 500 μM
[6] = uKIT, enzymatic assay, ATP 2000 μM
[7] = uFMS, enzymatic assay, ATP 500 μM

Chain of unphosphorylated PDGFRβ kinase (uPDGFRβ, Seq. ID No. 3) (P09619 557-1106): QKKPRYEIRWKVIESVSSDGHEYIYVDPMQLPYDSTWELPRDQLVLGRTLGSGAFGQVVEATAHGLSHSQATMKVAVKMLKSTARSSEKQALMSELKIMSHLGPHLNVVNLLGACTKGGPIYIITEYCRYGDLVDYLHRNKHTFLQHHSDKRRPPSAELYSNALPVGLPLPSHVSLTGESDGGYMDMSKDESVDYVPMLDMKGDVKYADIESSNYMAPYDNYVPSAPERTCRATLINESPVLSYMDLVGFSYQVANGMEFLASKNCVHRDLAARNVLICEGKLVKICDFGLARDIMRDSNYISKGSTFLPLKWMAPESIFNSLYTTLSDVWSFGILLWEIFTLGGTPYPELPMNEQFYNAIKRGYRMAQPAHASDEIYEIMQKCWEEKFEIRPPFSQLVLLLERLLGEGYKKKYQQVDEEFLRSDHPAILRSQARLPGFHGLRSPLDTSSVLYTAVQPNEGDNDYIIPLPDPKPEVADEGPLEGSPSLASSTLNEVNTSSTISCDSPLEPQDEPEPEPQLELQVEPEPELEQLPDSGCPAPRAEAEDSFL
Chain of unphosphorylated c-KIT kinase (uKIT, Seq. ID no. 2) (P10721 with tags, fused parts or gaps): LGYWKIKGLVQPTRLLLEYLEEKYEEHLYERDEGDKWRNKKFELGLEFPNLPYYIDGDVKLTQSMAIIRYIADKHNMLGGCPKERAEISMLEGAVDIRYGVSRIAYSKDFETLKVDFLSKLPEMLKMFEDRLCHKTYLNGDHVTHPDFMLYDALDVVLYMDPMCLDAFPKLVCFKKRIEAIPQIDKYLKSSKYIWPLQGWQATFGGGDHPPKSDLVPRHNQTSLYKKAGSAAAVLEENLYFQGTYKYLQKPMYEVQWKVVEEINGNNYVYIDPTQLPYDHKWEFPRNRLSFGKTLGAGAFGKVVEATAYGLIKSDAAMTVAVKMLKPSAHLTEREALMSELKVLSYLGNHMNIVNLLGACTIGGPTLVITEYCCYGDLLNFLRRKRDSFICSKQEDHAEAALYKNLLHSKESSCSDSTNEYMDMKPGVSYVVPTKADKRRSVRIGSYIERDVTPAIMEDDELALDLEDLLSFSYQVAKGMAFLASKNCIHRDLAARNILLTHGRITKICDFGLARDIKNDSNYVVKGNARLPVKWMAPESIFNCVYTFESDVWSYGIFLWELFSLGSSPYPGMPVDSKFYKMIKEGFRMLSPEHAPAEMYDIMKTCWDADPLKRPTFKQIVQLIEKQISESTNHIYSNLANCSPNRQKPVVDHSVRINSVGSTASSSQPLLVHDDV

Compound	IC50 (osteoclast precursors) [nM]	IC50 (M-NFS-60 cells) [nM]	IC50 [1, 5] [nM]	IC50 [2] [nM]	IC50 [3, 6] [nM]	IC50 [4, 7] [nM]	IC50 ([1]; IC50 (nM) uPDGFRβ, Table 3) [nM]	IC50 ([3]; IC50 (nM) uKIT, Table 3) [nM]	IC50 ([4]; IC50 (nM) uFMS, Table 3) [nM]
Cc1nc(NC(=O)NC(=O)C2CCC(F)(F)CC2)ccc1Oc1ccnc(-c2cnn(C)c2)c1 [Example 12, 4,4-difluoro-N-((6-methyl-5-((2-(1-methyl-1H-pyrazol-4-yl)pyridin-4-yl)oxy)pyridin-2-yl)carbamoyl)cyclohexanecarboxamide]	< 10	< 10	100 to 1000	10 to 100	10 to 100	< 10	–	–	–
Cc1ncc(-c2cc(Oc3ccc(NC(=O)NC(=O)C(C)(C)C)nc3C)ccn2)s1 [Example 86, N-((6-methyl-5-((2-(2-methylthiazol-5-yl)pyridin-4-yl)oxy)pyridin-2-yl)carbamoyl)pivalamide]	10 to 100	< 10	> 1000	< 10	> 1000	< 10	–	–	–
Cn1cc(-c2cc(Oc3cnc(NC(=O)NC(=O)C(C)(C)C)nc3)ccn2)cn1 [Example 174, N-((5-((2-(1-methyl-1H-pyrazol-4-yl)pyridin-4-yl)oxy)pyrimidin-2-yl)carbamoyl)pivalamide]	10 to 100	10 to 100	> 1000	10 to 100	100 to 1000	10 to 100	–	–	–
CN1CCN(CC(=O)NC(=O)Nc2ccc(Oc3ccnc(-c4cnn(C)c4)c3)cn2)CC1 [Example 49, N-((5-((2-(1-methyl-1H-pyrazol-4-yl)pyridin-4-yl)oxy)pyridin-2-yl)carbamoyl)-2-(4-methylpiperazin-1-yl)acetamide]	100 to 1000	> 1000	> 1000	100 to 1000	> 1000	10 to 100	–	–	–
Cc1ncc(-c2cc(Oc3ccc(NC(=O)NC(=O)C4(C)CCOCC4)nc3)ccn2)s1 [Example 158, 4-methyl-N-((5-((2-(2-methylthiazol-5-yl)pyridin-4-yl)oxy)pyridin-2-yl)carbamoyl)tetrahydro-2H-pyran-4-carboxamide]	10 to 100	10 to 100	100 to 1000	10 to 100	> 1000	10 to 100	–	–	–
Cc1nc(NC(=O)NC(=O)C(C)(C)C)ccc1Oc1ccnc(-c2cncs2)c1 [Example 131, N-((6-methyl-5-((2-(thiazol-5-yl)pyridin-4-yl)oxy)pyridin-2-yl)carbamoyl)pivalamide]	10 to 100	10 to 100	> 1000	< 10	> 1000	< 10	–	–	–
Cn1cc(-c2cc(Oc3ccc(NC(=O)NC(=O)CCC4(C(F)(F)F)CC4)nc3)ccn2)cn1 [Example 3, N-((5-((2-(1-methyl-1H-pyrazol-4-yl)pyridin-4-yl)oxy)pyridin-2-yl)carbamoyl)-3-(1-(trifluoromethyl)cyclopropyl)propanamide]	< 10	< 10	< 10	< 10	< 10	< 10	–	–	–
CC(C)c1nc(-c2cc(Oc3ccc(NC(=O)NC(=O)C(C)(C)C)nc3)ccn2)c[nH]1 [Example 169, N-((5-((2-(2-isopropyl-1H-imidazol-4-yl)pyridin-4-yl)oxy)pyridin-2-yl)carbamoyl)pivalamide]	10 to 100	10 to 100	> 1000	< 10	> 1000	< 10	–	–	–
CCc1nc(NC(=O)NC(=O)C2CCOCC2)ccc1Oc1ccnc(-c2cnn(C)c2)c1 [Example 83, N-((6-ethyl-5-((2-(1-methyl-1H-pyrazol-4-yl)pyridin-4-yl)oxy)pyridin-2-yl)carbamoyl)tetrahydro-2H-pyran-4-carboxamide]	10 to 100	10 to 100	> 1000	100 to 1000	> 1000	< 10	–	–	–
COC(C)(C)C(=O)NC(=O)Nc1ccc(Oc2ccnc(-c3ccc(C)nc3)c2)cn1 [Example 72, 2-methoxy-2-methyl-N-((5-((6′-methyl-[2,3′-bipyridin]-4-yl)oxy)pyridin-2-yl)carbamoyl)propanamide]	< 10	10 to 100	100 to 1000	< 10	> 1000	< 10	–	–	–
Cn1cc(-c2cc(Oc3cnc(NC(=O)NC(=O)C(C)(C)C)cn3)ccn2)cn1 [Example 176, N-((5-((2-(1-methyl-1H-pyrazol-4-yl)pyridin-4-yl)oxy)pyrazin-2-yl)carbamoyl)pivalamide]	10 to 100	> 1000	> 1000	10 to 100	> 1000	10 to 100	–	–	–
CC(C)(C)C(=O)NC(=O)Nc1ccc(Oc2ccnc(-c3cncs3)c2)cn1 [Example 125, N-((5-((2-(thiazol-5-yl)pyridin-4-yl)oxy)pyridin-2-yl)carbamoyl)pivalamide]	< 10	100 to 1000	> 1000	10 to 100	> 1000	< 10	–	–	–
COC(C)(C)C(=O)NC(=O)Nc1cc(C)c(Oc2ccnc(-n3cnc(C)c3)c2)cn1 [Example 164, 2-methoxy-2-methyl-N-((4-methyl-5-((2-(4-methyl-1H-imidazol-1-yl)pyridin-4-yl)oxy)pyridin-2-yl)carbamoyl)propanamide]	10 to 100	< 10	> 1000	< 10	> 1000	< 10	–	–	–
Cc1ccc(-c2cc(Oc3ccc(NC(=O)NC(=O)C(C)(C)C)nc3)ccn2)cn1 [Example 73, N-((5-((6′-methyl-[2,3′-bipyridin]-4-yl)oxy)pyridin-2-yl)carbamoyl)pivalamide]	< 10	10 to 100	100 to 1000	< 10	> 1000	< 10	–	–	–
C=CCn1cc(-c2cc(Oc3ccc(NC(=O)NC(=O)C(C)(C)OC)nc3)ccn2)cn1 [Example 172, N-((5-((2-(1-allyl-1H-pyrazol-4-yl)pyridin-4-yl)oxy)pyridin-2-yl)carbamoyl)-2-methoxy-2-methylpropanamide]	< 10	10 to 100	> 1000	< 10	100 to 1000	< 10	–	–	–
Cc1ncc(-c2cc(Oc3ccc(NC(=O)NC(=O)C(C)(C)C)nc3)ccn2)s1 [Example 70, N-((5-((2-(2-methylthiazol-5-yl)pyridin-4-yl)oxy)pyridin-2-yl)carbamoyl)pivalamide]	< 10	10 to 100	100 to 1000	10 to 100	> 1000	< 10	922	2600	4
Cn1cc(-c2cc(Oc3ccc(NC(=O)NC(=O)C(C)(C)C(F)(F)F)nc3)ccn2)cn1 [Example 35, 3,3,3-trifluoro-2,2-dimethyl-N-((5-((2-(1-methyl-1H-pyrazol-4-yl)pyridin-4-yl)oxy)pyridin-2-yl)carbamoyl)propanamide]	10 to 100	10 to 100	10 to 100	10 to 100	100 to 1000	< 10	–	–	–
Cc1nc(NC(=O)NC(=O)CCC2(C(F)(F)F)CC2)ccc1Oc1ccnc(-c2cnn(C)c2)c1 [Example 11, N-((6-methyl-5-((2-(1-methyl-1H-pyrazol-4-yl)pyridin-4-yl)oxy)pyridin-2-yl)carbamoyl)-3-(1-(trifluoromethyl)cyclopropyl)propanamide]	< 10	< 10	10 to 100	10 to 100	< 10	< 10	–	–	–
Cn1cc(-c2cc(Oc3ccc(NC(=O)NC(=O)C4(C)CCOCC4)nc3)ccn2)cn1 [Example 175, 4-methyl-N-((5-((2-(1-methyl-1H-pyrazol-4-yl)pyridin-4-yl)oxy)pyridin-2-yl)carbamoyl)tetrahydro-2H-pyran-4-carboxamide]	10 to 100	10 to 100	100 to 1000	10 to 100	100 to 1000	< 10	–	–	–
CCOC(C)(C)C(=O)NC(=O)Nc1ccc(Oc2ccnc(-c3cnn(C)c3)c2)c(C)n1 [Example 127, 2-ethoxy-2-methyl-N-((6-methyl-5-((2-(1-methyl-1H-pyrazol-4-yl)pyridin-4-yl)oxy)pyridin-2-yl)carbamoyl)propanamide]	< 10	10 to 100	100 to 1000	10 to 100	100 to 1000	< 10	–	–	–
Cn1cc(-c2cc(Oc3ccc(NC(=O)NC(=O)C45CC6CC(CC(C6)C4)C5)nc3)ccn2)cn1 [Example 38, N-((5-((2-(1-methyl-1H-pyrazol-4-yl)pyridin-4-yl)oxy)pyridin-2-yl)carbamoyl)adamantane-1-carboxamide]	10 to 100	10 to 100	< 10	10 to 100	10 to 100	< 10	–	–	–
